Measured values: PubChem BioAssay (NCI)
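Five concentrations, 48 hours, 96-well plates. Abbreviation: GI50, concentration required for 50% inhibition of growth. TGI denotes the concentration required for complete inhibition of growth.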

How the values were obtained:
Assay in all cases: growth of human tumour cells (NCI), 48 h
A549 NSCLC = system: A549 NSCLC
IGROV1 ovarian = system: IGROV1 ovarian
LOX IMVI melanoma = system: LOX IMVI melanoma
NCI-H226 lung = system: NCI-H226 lung
PC-3 prostate = system: PC-3 prostate
SF-268 CNS = system: SF-268 CNS
SK-MEL-2 melanoma = system: SK-MEL-2 melanoma
UO-31 renal = system: UO-31 renal
OVCAR-4 ovarian = system: OVCAR-4 ovarian

SMILES	TGI (A549 NSCLC) [µM]	TGI (IGROV1 ovarian) [µM]	TGI (LOX IMVI melanoma) [µM]	TGI (NCI-H226 lung) [µM]	TGI (PC-3 prostate) [µM]	TGI (SF-268 CNS) [µM]	TGI (SK-MEL-2 melanoma) [µM]	TGI (UO-31 renal) [µM]	TGI (OVCAR-4 ovarian) [µM]	GI50 (A549 NSCLC) [µM]	GI50 (IGROV1 ovarian) [µM]	GI50 (LOX IMVI melanoma) [µM]	GI50 (NCI-H226 lung) [µM]	GI50 (OVCAR-4 ovarian) [µM]	GI50 (PC-3 prostate) [µM]	GI50 (SF-268 CNS) [µM]	GI50 (SK-MEL-2 melanoma) [µM]
CCOC(=O)NC(Nc1ccc(F)cc1F)(C(F)(F)F)C(F)(F)F	> 100	> 100	> 100	> 100	> 100	> 100	> 100	> 100	–	–	–	–	–	–	–	–	–
Nc1cc(OCC2CCCCC2)nc(N)n1	> 100	> 100	> 100	> 100	> 100	> 100	> 100	> 100	> 100	–	–	–	–	–	–	–	–
N=c1oc2cc(O)ccc2cc1C(=O)Nc1ccccn1	> 100	> 100	> 100	> 100	> 100	> 100	97.2	–	> 100	–	–	–	–	–	–	–	–
CN(C)N1C(=O)C(=O)N(c2cccc3ccccc23)C1=O	> 10	> 10	> 10	> 10	> 10	> 10	> 10	> 10	> 10	–	–	–	–	–	–	–	–
O=C(Nc1ccccc1C(=O)NCc1ccccc1)/C(=C/c1ccccc1O)NC(=O)c1ccccc1	> 100	> 100	> 100	> 100	> 100	> 100	> 100	> 100	–	–	–	–	–	–	–	–	–
CC(C)(C)OC(=O)NC(CSCc1ccc(C(=O)c2ccccc2)cc1)C(=O)N1CCN(CCCCN2c3ccccc3Sc3cc(N=[N+]=[N-])ccc32)CC1 (centres undefined)	> 100	> 100	> 100	> 100	> 100	> 100	> 100	> 100	> 100	–	–	–	–	–	–	–	–
COC(=O)c1ccc(OCCn2nnc(C(=O)NN)c2C(=O)NN)cc1	> 100	–	> 100	–	> 100	–	> 100	> 100	> 100	–	–	–	–	–	–	–	–
CC(C)CC1c2[nH]c3ccccc3c2C[C@H]2C(=O)NC(Cc3c[nH]c4ccccc34)C(=O)N12 (some centres undefined)	71	36	31.1	50	41.9	56.3	32.9	42.9	63.8	–	–	–	–	–	–	–	–
COP(=O)(OC)C(N)Cc1c[nH]c2ccccc12 (centres undefined)	> 100	> 100	> 100	> 100	> 100	–	> 100	> 100	> 100	–	–	–	–	–	–	–	–
COc1ccc2c(c1)/C(=C\c1c(Cl)nc3n1CCS3)C(=O)N2	> 100	> 100	> 100	–	20	> 100	–	> 100	> 100	–	–	–	–	–	–	–	–
Cc1cn(S(=O)(=O)c2ccccc2)c2c(OCc3ccccc3)cc([N+](=O)[O-])cc12	> 100	> 100	> 100	> 100	> 100	> 100	> 100	> 100	> 100	–	–	–	–	–	–	–	–
Cc1cc(=O)[nH]c2cc(NC(=O)C(C)NC(=O)C(C)NC(=O)C(C)NC(=O)OC(C)(C)C)ccc12 (centres undefined)	> 15	> 15	> 15	> 15	> 15	> 15	> 15	> 15	> 15	–	–	–	–	–	–	–	–
O=C(Cn1c2ccc(Br)cc2c2nc3ccccc3nc21)NCc1ccccc1	> 100	> 100	> 100	> 100	> 100	> 100	95.1	> 100	> 100	–	–	–	–	–	–	–	–
Cc1cccc2c(=O)c3cccc([C@H](C)C(=O)O)c3oc12	> 100	> 100	> 100	> 100	> 100	> 100	> 100	> 100	> 100	–	–	–	–	–	–	–	–
O=c1c(NCc2ccccc2)c(C2(c3ccccc3F)SCCCS2)c1=O	> 100	> 100	> 100	> 100	> 100	> 100	> 100	> 100	> 100	–	–	–	–	–	–	–	–
COc1ccc(-c2cc(-c3ccc(C)cc3)n(C3OC(COC(C)=O)C(OC(C)=O)C(OC(C)=O)C3OC(C)=O)c(=S)c2C#N)cc1 (centres undefined)	> 100	> 100	> 100	> 100	> 100	> 100	–	> 100	> 100	–	–	–	–	–	–	–	–
CC1=NNC(=O)C1C1(C(=O)O)CC(c2c[nH]c3ccccc23)=NC(=S)N1 (centres undefined)	> 100	> 100	39.6	85.8	> 100	> 100	81.2	> 100	–	–	–	–	–	–	–	–	–
CC1OC(NCCNCCNC2OC(C)C(O)C(O)C2O)C(O)C(O)C1O (centres undefined)	> 100	> 100	> 100	> 100	> 100	> 100	> 100	> 100	> 100	–	–	–	–	–	–	–	–
CC(=O)OCC1OC(n2c(C)c(C)cc(C#N)c2=S)C(OC(C)=O)C(OC(C)=O)C1OC(C)=O (centres undefined)	> 100	> 100	> 100	> 100	> 100	> 100	> 100	> 100	> 100	–	–	–	–	–	–	–	–
CCC(C)C(Nc1c2ccccc2nc2c(C(=O)NCCN(C)C)cccc12)C(=O)O (centres undefined)	> 100	> 100	> 100	32.1	> 100	39.4	46.7	81.5	25.8	–	–	–	–	–	–	–	–
O=C(COc1cc(=O)oc2ccccc12)c1ccccc1	> 100	76.7	> 100	49	–	> 100	> 100	–	> 100	–	–	–	–	–	–	–	–
CC(=O)C1=C(C)N(c2ccccc2)C2(O)C3=C(C(=O)c4ccccc4C3=O)C(O)=CC12Cl (centres undefined)	> 100	8.25	> 100	55.7	46.5	60.6	22.2	26.7	14.5	–	–	–	–	–	–	–	–
CCOC(CBr)OC1C(=O)OCC1(C)C (centres undefined)	> 100	> 100	> 100	> 100	> 100	> 100	> 100	> 100	> 100	–	–	–	–	–	–	–	–

SMILES	TGI (A549 NSCLC) [µM]	TGI (IGROV1 ovarian) [µM]	TGI (LOX IMVI melanoma) [µM]	TGI (NCI-H226 lung) [µM]	TGI (PC-3 prostate) [µM]	TGI (SF-268 CNS) [µM]	TGI (SK-MEL-2 melanoma) [µM]	TGI (UO-31 renal) [µM]	TGI (OVCAR-4 ovarian) [µM]	GI50 (A549 NSCLC) [µM]	GI50 (IGROV1 ovarian) [µM]	GI50 (LOX IMVI melanoma) [µM]	GI50 (NCI-H226 lung) [µM]	GI50 (OVCAR-4 ovarian) [µM]	GI50 (PC-3 prostate) [µM]	GI50 (SF-268 CNS) [µM]	GI50 (SK-MEL-2 melanoma) [µM]
CCOC(=O)/C(C(N)=O)=C(\O)C(=O)/C=C(\O)c1ccc(Cl)cc1	> 100	36.2	31	48.8	38.1	59.9	34.4	33.4	> 100	–	–	–	–	–	–	–	–
COc1c(C(=O)/C(=N/Nc2ccc(C(=O)O)cc2)C(C)=O)c(O)cc2occc12	> 100	> 100	> 100	> 100	> 100	> 100	> 100	> 100	–	–	–	–	–	–	–	–	–
Nc1cc(C2CCCc3c2[nH]c2ccccc32)ccc1O (centres undefined)	> 100	> 100	71.2	> 100	> 100	> 100	> 100	> 100	> 100	–	–	–	–	–	–	–	–
O=C1C=C(NCCc2ccc(O)c([N+](=O)[O-])c2)C(=O)c2[nH]cnc21	93.4	54.8	> 100	–	> 100	–	51.1	> 100	–	–	–	–	–	–	–	–	–
O=C(NC(=S)Nc1ccc(Br)cc1)c1ccc2c(c1)Sc1ccccc1O2	> 100	> 100	> 100	> 100	> 100	> 100	> 100	> 100	–	–	–	–	–	–	–	–	–
Nc1cc(CO)cc(Nc2c3ccccc3nc3ccccc23)c1	38.9	31.3	31.5	34.9	36	60	30.5	32.3	29.7	–	–	–	–	–	–	–	–
CCOP(=O)(OCC)C(c1ccc(F)cc1)N(C(=O)NC(F)(F)F)c1ccc(F)cc1 (centres undefined)	> 100	> 100	> 100	> 100	> 100	> 100	–	> 100	–	–	–	–	–	–	–	–	–
O=S1(=O)OCCOS(=O)(=O)C1(F)Cc1ccccc1	> 100	> 100	> 100	> 100	> 100	> 100	> 100	> 100	> 100	–	–	–	–	–	–	–	–
O=C1c2c(c3c4cc(F)ccc4oc3c3[nH]c4ccccc4c23)C(=O)N1O	> 100	11.1	2.15	73.8	> 100	25.4	12.6	–	> 100	27.1	0.46	0.5	3.85	4.82	1.35	1.2	3.06
CN1C/C(=C\c2cccs2)C2=NN(c3ccccc3)C(c3cccs3)C2C1 (centres undefined)	> 100	> 25.5	> 100	> 100	> 100	> 40.6	> 100	> 100	> 100	–	–	–	–	–	–	–	–
O=C1/C(=C/c2cccc([N+](=O)[O-])c2)N=C(c2ccccc2)N1c1nc2ccc(Sc3ccccc3)cc2[nH]1	> 100	> 100	> 100	> 100	> 100	> 100	> 100	> 100	> 100	–	–	–	–	–	–	–	–
COc1cc2ncnc(NS(=O)(=O)c3cc4ccccc4s3)c2cc1OC	> 100	> 100	> 100	> 100	> 100	> 100	> 100	> 100	> 100	–	–	–	–	–	–	–	–
COc1ccc(N2C(=O)C3ON(Cc4ccc(CC(N)=O)cc4)C(c4c5ccccc5c(C)c5ccccc45)C3C2=O)cc1 (centres undefined)	> 100	> 100	> 100	–	> 100	> 100	48.7	37.3	96.5	–	–	–	–	–	–	–	–
CCN(CC)Cc1cc(N=Nc2c(O)ccc3c(N=Nc4ccc(O)c(CN(CC)CC)c4)c(O)ccc23)ccc1O	> 23.5	19	3.37	22.7	> 41.1	33.8	> 51.6	6.96	7.21	–	–	–	–	–	–	–	–
CC1=C[P+](c2ccccc2)(c2ccccc2)c2ccccc2O1	> 100	44.9	17.2	46.2	17.1	> 100	94.6	> 100	> 100	–	–	–	–	–	–	–	–
COc1cc(/C=C2\C(=O)N(c3cccc(NC(C)=O)c3)C(c3ccccc3)S2(=O)=O)cc(OC)c1OC (centres undefined)	> 100	> 100	> 100	> 100	> 100	–	> 100	> 100	> 100	–	–	–	–	–	–	–	–
COc1ccc(-c2c(C#N)c(N)[nH]c(=S)c2C#N)cc1	> 100	> 100	> 100	> 100	> 100	> 100	> 100	> 100	> 100	–	–	–	–	–	–	–	–
CC(O)C(CO)NC(=O)C1CSSCC(NC(=O)C(N)Cc2ccccc2)C(=O)NC(Cc2ccccc2)C(=O)NC(Cc2c[nH]c3ccccc23)C(=O)NC(CCCCN)C(=O)NC(C(C)O)C(=O)N1 (centres undefined)	> 100	> 100	> 100	> 100	> 100	> 100	–	> 100	> 100	–	–	–	–	–	–	–	–
Cc1nc2c(Cl)cc(Cl)cc2c2c1CCO2	> 100	> 100	> 100	> 100	–	> 100	> 100	> 100	> 100	–	–	–	–	–	–	–	–
Cc1cc2ncn(CC(=O)O)c2cc1C	> 100	> 100	> 100	> 100	> 100	> 100	> 100	> 100	> 100	–	–	–	–	–	–	–	–
O=C(CC(C(=O)c1ccsc1)c1cccs1)c1ccccc1 (centres undefined)	54.8	> 100	> 100	> 100	–	> 100	–	76.3	67.3	–	–	–	–	–	–	–	–
N=c1oc2ccc3ccccc3c2cc1-c1nc2ccccc2c(=O)[nH]1	73.3	75.9	> 100	> 100	> 100	> 100	31.8	32.8	67.2	–	–	–	–	–	–	–	–
O=[N+]([O-])c1ccc2c(c1)nc1n2C(c2c(F)cccc2F)SC1 (centres undefined)	> 100	> 100	> 100	–	> 100	> 100	> 100	> 100	> 100	–	–	–	–	–	–	–	–
